Source: patent US20190105264A1, “NON-INVASIVE OCULAR DRUG DELIVERY DEVICES” (Aciont Inc., priority 2017, published 2019)

How the values were obtained:
[1] = Ocular toxicity study: body weight; settings: 20 min, 12 weekly doses
Method: (§1) For the ocular toxicity study, there were four groups. […] The total exposure was 12 doses over the period of 12 weeks. Clinical observations were performed on weekdays, and before and after each dosing. Following the final observations (i.e., one week after the last dose), the rabbits were sacrificed and the eyes were processed for histological evaluation.
Body weights of the animal were taken upon arrival, and then monthly. All animals (both left and right eyes) were examined by indirect ophthalmoscopy of the cornea, conjunctiva, anterior chamber, vitreous, posterior chamber, and sclera. One to two drops each of phenylephrine hydrochloride and cyclopentolate hydrochloride were used as mydriatics. Observations on the anterior and posterior segments of the eye were made, graded, and recorded. A modified McDonald-Shadduck scale was used for grading eye irritation and ocular toxicity.

[2] = system: treated eyes (right eye); settings: rabbit, in vivo
Method: Young adult New Zealand White rabbits each weighing 3-4 kg were obtained from Western Oregon Rabbit Co. (Philomath, Oreg.). […] All animals were acclimated and observed for health issues for at least two weeks prior to being used in the study.
as §1
One drop of sterile proparacaine hydrochloride (a local anesthetic) was put on the eye (to be treated) 5 minutes before dose administration. […] The position of the device was checked to ensure that the active agent matrix was in immediate contact with the white part of the eye but not the cornea. Digital timers were used for accurate application times (i.e., 5, 10, or 20 minutes). After the given application duration, the applicator was carefully removed from the eye.
All animals (both left and right eyes) were examined by indirect ophthalmoscopy of the cornea, conjunctiva, anterior chamber, vitreous, posterior chamber, and sclera. […] Observations on the anterior and posterior segments of the eye were made, graded, and recorded. […]

## C[C@@H]1C[C@H]2[C@@H]3CCC4=CC(=O)C=C[C@]4(C)[C@@]3(F)[C@@H](O)C[C@]2(C)[C@@]1(O)C(=O)COP(=O)(O)O [DSP, dexamethasone sodium phosphate]
[1]; 15% DSP
  Body Weight: 8% loss
[1]; 25% DSP
  Body Weight: 13% loss
[2]; New Zealand White, 12 weeks
  Typical conjunctival injection scores immediately after treatment: 1 or <1
[2]
  Ocular findings in treated eyes (conjunctival injection, discharge, corneal haze): transient and mild in nature
